Reference: ChEMBL document CHEMBL1201862, “PubChem BioAssay data set” (2004)
Activity calls are given as the source filed them.

Legend:
T-cell = assay: inhibitors of CD8+ T cell–vesicle binding, dose response, mouse 2C CD8+ T cells, flow cytometry (AID 485284); type: functional
Coagulation factor XII = biological target: T1, Coagulation factor XII (Homo sapiens, UniProt P00748); assay: Factor XIIa Dose Response Confirmation from Single Well HTS. [Related pubchem assays (depositor defined):AID701]; type: functional
T1 sequence (P00748 whole entry): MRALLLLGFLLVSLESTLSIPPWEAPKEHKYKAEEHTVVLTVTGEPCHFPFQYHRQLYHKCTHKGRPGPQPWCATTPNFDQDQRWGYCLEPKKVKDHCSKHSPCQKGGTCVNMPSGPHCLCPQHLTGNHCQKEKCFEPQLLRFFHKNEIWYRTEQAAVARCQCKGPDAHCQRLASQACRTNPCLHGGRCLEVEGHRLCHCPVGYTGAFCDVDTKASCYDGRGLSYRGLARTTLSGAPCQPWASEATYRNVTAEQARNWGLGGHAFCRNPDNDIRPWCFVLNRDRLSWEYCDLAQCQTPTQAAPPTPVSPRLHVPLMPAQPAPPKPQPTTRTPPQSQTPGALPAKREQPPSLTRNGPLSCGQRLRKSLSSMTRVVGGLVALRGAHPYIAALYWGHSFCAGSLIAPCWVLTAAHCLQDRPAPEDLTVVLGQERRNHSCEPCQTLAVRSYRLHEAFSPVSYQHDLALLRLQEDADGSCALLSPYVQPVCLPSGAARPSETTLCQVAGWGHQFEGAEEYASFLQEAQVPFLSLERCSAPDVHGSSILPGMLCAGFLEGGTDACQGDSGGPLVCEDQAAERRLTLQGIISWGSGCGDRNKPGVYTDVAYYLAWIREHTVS

Caspase-3 = biological target: T2, Caspase-3 (Homo sapiens, UniProt P42574); assay: procaspase-3 activators, dose response, biochemical, absorbance (AID 489014)
T2 sequence (P42574 whole entry): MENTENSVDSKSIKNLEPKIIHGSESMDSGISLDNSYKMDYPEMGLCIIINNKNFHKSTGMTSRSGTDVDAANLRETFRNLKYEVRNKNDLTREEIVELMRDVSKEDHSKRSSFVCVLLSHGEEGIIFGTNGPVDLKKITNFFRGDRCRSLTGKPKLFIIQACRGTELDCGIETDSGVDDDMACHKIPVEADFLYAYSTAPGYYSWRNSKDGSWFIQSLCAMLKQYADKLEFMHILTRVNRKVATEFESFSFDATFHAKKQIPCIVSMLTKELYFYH

Caspase-7 = biological target: T3, Caspase-7 (Homo sapiens, UniProt P55210); assay: procaspase-7 activators, dose response, counter-screen for procaspase-3 activator project, biochemical, absorbance (AID 489013)
T3 sequence (P55210 whole entry): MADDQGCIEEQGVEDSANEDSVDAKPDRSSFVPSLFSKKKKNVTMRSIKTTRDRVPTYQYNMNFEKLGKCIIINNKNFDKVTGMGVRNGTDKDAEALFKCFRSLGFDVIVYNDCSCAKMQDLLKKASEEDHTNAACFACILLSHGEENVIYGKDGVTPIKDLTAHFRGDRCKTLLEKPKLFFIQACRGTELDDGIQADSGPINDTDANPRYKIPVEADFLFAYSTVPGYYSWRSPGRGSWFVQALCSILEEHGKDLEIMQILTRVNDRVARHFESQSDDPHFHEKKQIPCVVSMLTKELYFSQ

[1] = biological target: T4, Endoribonuclease toxin MazF (Escherichia coli K-12, UniProt P0AE70); assay: fluorescent RNA oligo signal without MazF, dose response, counter-screen for MazEF activator project, biochemical, fluorescence, single-stranded RNase substrate (AID 588502); type: functional
T4 sequence (P0AE70 whole entry): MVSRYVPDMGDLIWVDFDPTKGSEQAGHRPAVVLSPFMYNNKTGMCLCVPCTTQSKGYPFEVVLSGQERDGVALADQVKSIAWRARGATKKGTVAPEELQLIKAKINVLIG

[2] = biological target: T4, Endoribonuclease toxin MazF; assay: MazF toxin RNase activators, dose response, biochemical, fluorescence, single-stranded RNA substrate, uHTS hits (AID 588481); type: functional
Beta-galactosidase = Beta-galactosidase (Escherichia coli, UniProt Q8VNN2); assay: beta-galactosidase enzyme inhibitors and activators, dose response, artefact control for CCR6 antagonist project, biochemical, E. coli enzyme, set 3 (AID 504712); type: functional
Beta-galactosidase, sequence (Q8VNN2 whole entry): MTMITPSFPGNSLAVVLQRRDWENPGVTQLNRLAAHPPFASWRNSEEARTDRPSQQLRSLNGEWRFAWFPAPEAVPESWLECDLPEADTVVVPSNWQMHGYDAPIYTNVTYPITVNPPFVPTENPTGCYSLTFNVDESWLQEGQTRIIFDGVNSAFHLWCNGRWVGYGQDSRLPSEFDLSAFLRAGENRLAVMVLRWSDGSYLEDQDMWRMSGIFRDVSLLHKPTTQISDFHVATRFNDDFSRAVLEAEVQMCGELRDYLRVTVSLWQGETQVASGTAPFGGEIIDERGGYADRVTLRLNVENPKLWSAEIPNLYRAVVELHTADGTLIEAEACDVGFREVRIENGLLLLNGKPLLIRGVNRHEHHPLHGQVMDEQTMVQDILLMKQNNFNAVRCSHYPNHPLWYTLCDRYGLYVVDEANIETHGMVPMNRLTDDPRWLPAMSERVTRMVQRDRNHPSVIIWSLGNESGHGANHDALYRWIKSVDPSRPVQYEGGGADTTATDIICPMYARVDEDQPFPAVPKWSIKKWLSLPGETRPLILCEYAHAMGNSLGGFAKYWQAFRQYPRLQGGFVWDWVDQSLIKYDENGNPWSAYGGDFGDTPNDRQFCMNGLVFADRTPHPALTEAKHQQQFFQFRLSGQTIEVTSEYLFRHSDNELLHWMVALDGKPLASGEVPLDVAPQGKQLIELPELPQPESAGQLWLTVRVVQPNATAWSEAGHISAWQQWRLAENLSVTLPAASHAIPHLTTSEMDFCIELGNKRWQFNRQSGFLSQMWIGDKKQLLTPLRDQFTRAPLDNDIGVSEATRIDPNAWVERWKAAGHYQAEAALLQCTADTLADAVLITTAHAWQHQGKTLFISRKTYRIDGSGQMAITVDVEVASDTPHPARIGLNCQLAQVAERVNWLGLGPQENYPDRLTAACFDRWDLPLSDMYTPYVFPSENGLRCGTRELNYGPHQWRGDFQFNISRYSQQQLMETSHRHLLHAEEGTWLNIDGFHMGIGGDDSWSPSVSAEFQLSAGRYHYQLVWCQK

[3] = biological target: T5, G-protein coupled receptor 35 (Homo sapiens, UniProt Q9HC97); assay: GPR35 antagonists blocking zaprinast-driven arrestin recruitment, primary screen, imaging, U2OS, beta-arrestin-GFP, zaprinast agonist (AID 2058); type: functional;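 also: antagonist potency meaning inhibition of agonist-induced arrestin redistribution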
T5 sequence (Q9HC97 whole entry): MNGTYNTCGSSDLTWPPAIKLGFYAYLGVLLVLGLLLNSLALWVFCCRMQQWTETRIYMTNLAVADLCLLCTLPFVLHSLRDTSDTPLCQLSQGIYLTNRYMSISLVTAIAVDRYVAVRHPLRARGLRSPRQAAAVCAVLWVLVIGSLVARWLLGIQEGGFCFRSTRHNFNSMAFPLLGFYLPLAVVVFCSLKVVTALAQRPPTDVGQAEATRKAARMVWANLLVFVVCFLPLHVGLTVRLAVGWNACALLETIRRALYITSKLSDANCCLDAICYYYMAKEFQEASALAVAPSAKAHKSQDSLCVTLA

[4] = biological target: T6, G-protein coupled receptor 55 (Homo sapiens, UniProt Q9Y2T6); assay: SAR Analysis of Selective Antagonists of GPR55 using an Image-Based Assay - Set 3. [Related pubchem assays (depositor defined):AID2058, AID2079]; type: functional
T6 sequence (Q9Y2T6 whole entry): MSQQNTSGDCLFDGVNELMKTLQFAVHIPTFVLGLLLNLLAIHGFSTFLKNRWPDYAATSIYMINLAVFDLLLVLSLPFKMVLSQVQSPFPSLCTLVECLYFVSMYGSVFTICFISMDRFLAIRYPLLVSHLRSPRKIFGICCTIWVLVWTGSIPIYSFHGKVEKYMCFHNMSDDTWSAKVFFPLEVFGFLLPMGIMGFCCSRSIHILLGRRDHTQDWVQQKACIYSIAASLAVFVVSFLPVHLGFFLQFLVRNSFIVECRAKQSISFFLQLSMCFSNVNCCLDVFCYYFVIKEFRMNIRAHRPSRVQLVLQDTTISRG

[5] = biological target: T5, G-protein coupled receptor 35; assay: SAR Analysis for the identification of Selective Antagonists of ERK1/2 Activity in GPR35-Overexpressing U2OS Cells - Set 2. [Related pubchem assays (depositor defined):AID2058, AID2079]; type: functional, cell-based
[6] = biological target: T5, G-protein coupled receptor 35; assay: SAR analysis of Antagonists of the GPR35 Receptor using an Image-Based Assay - Set 5. [Related pubchem assays (depositor defined):AID2058, AID2079]; type: functional
HEK293 [7] = assay: NOD2 signaling inhibitors in MDP-stimulated cells, cell-based, uHTS, luminescence (AID 2001); type: functional; conditions: Homo sapiens
HEK293 [8] = assay: cells; type: functional, cell-based; conditions: Homo sapiens
Streptococcus = assay: Group A Streptococcus viability loss, dose response, counter-screen for streptokinase expression inhibitor project, luminescence, BacTiterGlo (AID 1915); type: functional, organism-based;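 also: potency for reduction of bacterial viability or growth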
cells = type: functional
[9] = system: Streptococcus sp. 'group A'; assay: growth inhibition of control SK(-) GAS strain, dose response, counter-screen for streptokinase expression inhibitor project, luminescence, kanamycin, BacTiterGlo, confirmation (AID 1900); type: functional, organism-based
[10] = THP-1 cell cytotoxicity, dose response, cytotoxicity control for non-replicating M. tuberculosis project (AID 489025); type: functional
Streptokinase A = biological target: T7, Streptokinase A (Streptococcus pyogenes serotype M1, UniProt P10520); assay: S. pyogenes streptokinase expression inhibitors, potency, dose response, plasminogen activation absorbance, OD405 (AID 1914); type: functional, Streptococcus pyogenes M1 GAS;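 also: secreted streptokinase activity via plasminogen activation per viability signal from cell pellet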
T7 sequence (P10520 whole entry): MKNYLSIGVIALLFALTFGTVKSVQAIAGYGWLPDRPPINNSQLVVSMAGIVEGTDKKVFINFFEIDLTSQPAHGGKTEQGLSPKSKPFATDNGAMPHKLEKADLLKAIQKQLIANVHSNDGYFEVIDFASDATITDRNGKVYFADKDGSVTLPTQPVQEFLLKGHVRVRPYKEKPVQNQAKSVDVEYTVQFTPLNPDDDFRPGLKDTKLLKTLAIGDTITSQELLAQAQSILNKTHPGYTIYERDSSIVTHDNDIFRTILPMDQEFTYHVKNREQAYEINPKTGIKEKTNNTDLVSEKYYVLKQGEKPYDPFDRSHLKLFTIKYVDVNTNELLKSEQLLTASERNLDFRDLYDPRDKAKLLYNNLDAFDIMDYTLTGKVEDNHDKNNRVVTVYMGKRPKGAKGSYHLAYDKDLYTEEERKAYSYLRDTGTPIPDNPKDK

Tumor necrosis factor = Tumor necrosis factor (Homo sapiens, UniProt P01375); assay: TNFa-triggered NF-kB activation inhibitors, SAR follow-up, cell-based, revised (AID 2337); type: functional
Tumor necrosis factor, sequence (P01375 whole entry, the tested form may be a part): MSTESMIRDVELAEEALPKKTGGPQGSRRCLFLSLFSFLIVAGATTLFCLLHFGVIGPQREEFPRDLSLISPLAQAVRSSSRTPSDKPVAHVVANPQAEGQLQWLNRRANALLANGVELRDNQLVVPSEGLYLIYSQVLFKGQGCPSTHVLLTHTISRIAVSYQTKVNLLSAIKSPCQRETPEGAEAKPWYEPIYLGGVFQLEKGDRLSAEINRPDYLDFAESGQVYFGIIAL

[11] = biological target: T8, Nucleotide-binding oligomerization domain-containing protein 2 (Homo sapiens, UniProt Q9HC29); assay: NOD2 inhibitors, SAR follow-up, set 2 (AID 2475); type: functional
T8 sequence (Q9HC29 whole entry, the tested form may be a part): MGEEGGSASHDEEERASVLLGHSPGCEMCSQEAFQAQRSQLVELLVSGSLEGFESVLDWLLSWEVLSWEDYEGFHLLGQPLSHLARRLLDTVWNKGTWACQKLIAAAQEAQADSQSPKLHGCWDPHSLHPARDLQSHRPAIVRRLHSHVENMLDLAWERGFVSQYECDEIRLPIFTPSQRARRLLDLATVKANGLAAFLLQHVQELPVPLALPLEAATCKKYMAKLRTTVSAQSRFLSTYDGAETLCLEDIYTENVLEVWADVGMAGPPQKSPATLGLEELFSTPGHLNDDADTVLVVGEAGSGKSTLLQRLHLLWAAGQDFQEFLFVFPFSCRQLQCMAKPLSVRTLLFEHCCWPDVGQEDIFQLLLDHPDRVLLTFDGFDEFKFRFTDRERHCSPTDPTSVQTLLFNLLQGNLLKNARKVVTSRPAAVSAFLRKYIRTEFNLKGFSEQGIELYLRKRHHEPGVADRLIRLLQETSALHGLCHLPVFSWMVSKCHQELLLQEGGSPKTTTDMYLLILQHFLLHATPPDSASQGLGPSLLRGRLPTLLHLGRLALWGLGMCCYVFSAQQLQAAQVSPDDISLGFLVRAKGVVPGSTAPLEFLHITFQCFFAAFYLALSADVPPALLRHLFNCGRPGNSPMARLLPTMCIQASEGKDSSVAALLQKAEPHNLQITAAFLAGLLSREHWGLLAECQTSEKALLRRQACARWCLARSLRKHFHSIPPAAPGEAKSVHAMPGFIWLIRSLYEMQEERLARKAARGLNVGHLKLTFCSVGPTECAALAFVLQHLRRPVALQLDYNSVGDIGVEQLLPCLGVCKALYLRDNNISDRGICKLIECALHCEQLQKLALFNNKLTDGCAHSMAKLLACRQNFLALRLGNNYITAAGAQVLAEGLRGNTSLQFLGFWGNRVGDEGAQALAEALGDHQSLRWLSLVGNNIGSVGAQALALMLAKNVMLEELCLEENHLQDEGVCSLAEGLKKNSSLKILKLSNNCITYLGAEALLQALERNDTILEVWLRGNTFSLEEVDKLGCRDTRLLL

[12] = biological target: T8, Nucleotide-binding oligomerization domain-containing protein 2; assay: NOD2 signaling inhibitors, cell-based, luminescence, uHTS, HEK293 (AID 1566); type: functional
[13] = HepG2 cell cytotoxicity, dose response, cytotoxicity control for non-replicating M. tuberculosis project (AID 489018); type: functional; conditions: Mycobacterium tuberculosis
[14] = biological target: T9, Nucleotide-binding oligomerization domain-containing protein 1 (Homo sapiens, UniProt Q9Y239); assay: NOD1 signaling inhibitors, SAR follow-up, revised (AID 2333); type: functional
T9 sequence (Q9Y239 whole entry): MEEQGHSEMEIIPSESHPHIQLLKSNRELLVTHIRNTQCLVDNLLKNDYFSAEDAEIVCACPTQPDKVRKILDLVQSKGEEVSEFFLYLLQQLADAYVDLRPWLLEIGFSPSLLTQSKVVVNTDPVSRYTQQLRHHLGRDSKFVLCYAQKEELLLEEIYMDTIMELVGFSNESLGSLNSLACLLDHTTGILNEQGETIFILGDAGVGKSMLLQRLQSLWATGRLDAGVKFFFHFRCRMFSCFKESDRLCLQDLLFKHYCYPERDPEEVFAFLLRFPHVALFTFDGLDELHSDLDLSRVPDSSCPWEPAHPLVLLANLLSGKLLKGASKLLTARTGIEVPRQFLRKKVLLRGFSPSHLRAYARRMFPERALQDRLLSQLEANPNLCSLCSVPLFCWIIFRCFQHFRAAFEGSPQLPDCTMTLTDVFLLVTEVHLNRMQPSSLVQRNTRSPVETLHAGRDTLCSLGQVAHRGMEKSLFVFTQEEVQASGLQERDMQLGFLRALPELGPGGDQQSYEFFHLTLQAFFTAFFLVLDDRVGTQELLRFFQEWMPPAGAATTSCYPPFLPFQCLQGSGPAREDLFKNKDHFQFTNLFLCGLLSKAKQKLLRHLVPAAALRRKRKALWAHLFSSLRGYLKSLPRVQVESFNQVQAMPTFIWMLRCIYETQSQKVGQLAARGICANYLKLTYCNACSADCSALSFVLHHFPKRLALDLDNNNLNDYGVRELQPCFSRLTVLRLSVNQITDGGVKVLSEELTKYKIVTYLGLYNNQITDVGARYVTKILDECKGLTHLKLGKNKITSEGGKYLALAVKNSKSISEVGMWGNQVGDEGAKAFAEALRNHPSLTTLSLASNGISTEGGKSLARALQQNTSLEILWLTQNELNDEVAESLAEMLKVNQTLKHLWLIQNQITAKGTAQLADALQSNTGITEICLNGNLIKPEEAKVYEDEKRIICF

HEK293 [15] = assay: cells; conditions: Homo sapiens
HEK293 [16] = assay: NOD1 signaling inhibitors, primary screen, cell-based, luminescence, uHTS (AID 1578); type: functional; conditions: Homo sapiens
HEK293 [17] = assay: cells; type: functional, cell-based; conditions: Homo sapiens; remark: listed apart in the source
[18] = biological target: T8, Nucleotide-binding oligomerization domain-containing protein 2; assay: PubChem AID 2334; type: functional
HEK293 [19] = assay: cells; type: functional, cell-based; conditions: Homo sapiens; remark: listed apart in the source
[20] = Vero E6 cell cytotoxicity, dose response, cytotoxicity control for non-replicating M. tuberculosis project, secondary assay (AID 492998); type: functional, VeroE6; conditions: Vero C1008
HEK293 [21] = assay: SAR analysis of compounds that are cytotoxic to HEK293 - Set 2. [Related pubchem assays (depositor defined):AID1575, AID1578, AID1849, AID2001, AID2333, AID2334, AID2335, AID2337, AID2800]; type: functional, cell-based; conditions: Homo sapiens
Perilipin-1/ABHD5 = Perilipin-1/ABHD5 (Homo sapiens, UniProt O60240+Q8WTS1); assay: Luminescence-based biochemical high throughput dose response assay for inhibitors of the interaction of the lipase co-activator protein, abhydrolase domain containing 5 (ABHD5) with perilipin-1 (PLIN1) (2K validation set). [Related pubchem assays (depositor defined):AID493027, AID493057]
Perilipin-1/ABHD5, sequence (Q8WTS1 whole entry, the tested form may be a part): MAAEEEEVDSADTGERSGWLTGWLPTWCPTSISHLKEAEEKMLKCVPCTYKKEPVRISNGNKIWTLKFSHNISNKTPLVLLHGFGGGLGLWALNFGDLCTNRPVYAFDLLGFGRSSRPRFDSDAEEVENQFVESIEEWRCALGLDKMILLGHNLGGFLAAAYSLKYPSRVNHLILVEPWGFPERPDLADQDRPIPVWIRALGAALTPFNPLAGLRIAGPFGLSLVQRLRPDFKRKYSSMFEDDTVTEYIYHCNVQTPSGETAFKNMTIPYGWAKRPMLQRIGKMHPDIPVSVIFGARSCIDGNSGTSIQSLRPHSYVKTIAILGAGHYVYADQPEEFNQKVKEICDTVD
Perilipin-1/ABHD5, sequence (O60240 whole entry, the tested form may be a part): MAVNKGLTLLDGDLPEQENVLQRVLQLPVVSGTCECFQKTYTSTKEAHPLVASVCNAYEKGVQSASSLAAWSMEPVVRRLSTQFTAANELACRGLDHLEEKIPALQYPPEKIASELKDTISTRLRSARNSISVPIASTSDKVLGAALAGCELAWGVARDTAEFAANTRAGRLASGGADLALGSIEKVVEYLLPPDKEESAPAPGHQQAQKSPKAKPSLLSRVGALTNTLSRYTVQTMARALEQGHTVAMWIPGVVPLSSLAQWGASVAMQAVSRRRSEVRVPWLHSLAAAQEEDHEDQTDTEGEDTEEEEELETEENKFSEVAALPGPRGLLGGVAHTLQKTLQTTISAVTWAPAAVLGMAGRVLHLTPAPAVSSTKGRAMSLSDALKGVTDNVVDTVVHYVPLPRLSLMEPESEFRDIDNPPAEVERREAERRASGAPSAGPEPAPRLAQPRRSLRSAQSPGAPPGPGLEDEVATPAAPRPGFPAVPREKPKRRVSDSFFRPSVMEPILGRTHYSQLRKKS

[22] = biological target: 1-acylglycerol-3-phosphate O-acyltransferase ABHD5/Perilipin-5 (Homo sapiens, UniProt Q00G26+Q8WTS1); assay: Luminescence-based biochemical high throughput dose response assay for inhibitors of the interaction of the lipase co-activator protein, abhydrolase domain containing 5 (ABHD5) with perilipin-5 (MLDP; PLIN5) (2K validation set). [Related pubchem assays (depositor defined):AID493035, AID493241]
1-acylglycerol-3-phosphate O-acyltransferase ABHD5/Perilipin-5, sequence (Q00G26 whole entry, the tested form may be a part): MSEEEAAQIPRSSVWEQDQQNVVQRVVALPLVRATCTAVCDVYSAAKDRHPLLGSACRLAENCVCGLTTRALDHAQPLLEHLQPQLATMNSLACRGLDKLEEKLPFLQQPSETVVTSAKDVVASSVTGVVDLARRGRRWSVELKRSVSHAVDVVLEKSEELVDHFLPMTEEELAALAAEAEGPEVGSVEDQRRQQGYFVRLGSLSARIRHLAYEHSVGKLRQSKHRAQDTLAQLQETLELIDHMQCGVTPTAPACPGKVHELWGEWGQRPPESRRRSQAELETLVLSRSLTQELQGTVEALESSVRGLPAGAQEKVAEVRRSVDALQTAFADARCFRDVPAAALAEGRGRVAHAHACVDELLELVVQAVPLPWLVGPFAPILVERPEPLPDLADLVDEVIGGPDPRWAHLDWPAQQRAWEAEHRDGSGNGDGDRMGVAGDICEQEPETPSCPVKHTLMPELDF
1-acylglycerol-3-phosphate O-acyltransferase ABHD5/Perilipin-5, sequence (Q8WTS1 whole entry, the tested form may be a part): as the sequence (Q8WTS1 whole entry, the tested form may be a part) above

[23] = biological target: T6, G-protein coupled receptor 55; assay: GPR55 antagonists blocking LPI-driven arrestin recruitment, primary screen, imaging, U2OS, beta-arrestin-GFP, LPI agonist (AID 2013); type: functional;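 also: antagonist potency measured as reduced agonist-driven arrestin aggregation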

With `COc1ccccc1CNC(=O)COc1ccc(C)cc1` the EC50 (T-cell) was 22.1 µM (active).

In the case of `Cc1cc(NC(=O)C(C)C)ncc1NC(=O)Cc1ccccc1`, the IC50 (Coagulation factor XII) is reported as > 50 µM (inactive).

In the case of `COc1ccccc1Nc1nc2c(C)cccc2cc1C#N`, the EC50 (Caspase-3) is reported as 3.54 µM (active), the EC50 (Caspase-7) is reported as 9.49 µM (active) and the EC50 [1] is reported as 7.39 µM (active). The EC50 [2] was > 99 µM (inactive).

In the case of `O=C(NC(=S)N1CCN(c2ccc(C(F)(F)F)cc2[N+](=O)[O-])CC1)c1cccs1`, the IC50 (Beta-galactosidase) is reported as > 66.6 µM (inactive).

With `CNC(=S)N/N=C/c1c(C(=O)OC)cnn1-c1ccc(F)cc1F` the IC50 [3] was 1.11 µM (active), the IC50 [4] was > 32 µM (inactive) and the IC50 [5] was 2.29 µM (active). The IC50 [6] was 2.49 µM (active).

In the case of `CCC(=O)Nc1nc2ccccc2n1Cc1ccccc1Cl`, the IC50 (HEK293 [7]) is reported as 3.8 µM (active), the IC50 (HEK293 [8]) is reported as > 20 µM (inactive) and the EC50 (Streptococcus) is reported as 105 µM (active). The IC50 (cells) was 0.21 µM (active), the EC50 [9] was 6.44 µM (active) and the CC50 [10] was 29.7 µM (active). The EC50 (Streptokinase A) was > 150 µM (not active), the IC50 (Tumor necrosis factor) was > 20 µM (inactive) and the IC50 [11] was 5.24 µM (active). The EC50 [12] was > 20 µM (inactive), the CC50 [13] was > 20 µM (active) and the IC50 [14] was > 20 µM (inactive). The IC50 (HEK293 [15]) was > 20 µM (inactive), the EC50 (HEK293 [16]) was > 20 µM (inactive) and the IC50 (HEK293 [17]) was > 20 µM (inactive). For the same compound, the IC50 [18] was > 20 µM (inactive), the IC50 (HEK293 [19]) was > 20 µM (inactive) and the CC50 [20] was 10.9 µM (active). The IC50 (HEK293 [21]) was > 20 µM (inactive).

With `O=C(/C=C/c1ccc2c(c1)OCO2)c1ccccn1` the IC50 (Perilipin-1/ABHD5) was 6.85 µM (active) and the IC50 [22] was 6.96 µM (active).

In the case of `CCSc1nnc2nc3c(c(O)n12)C1(CCCCC1)Cc1ccccc1-3`, the IC50 [23] is reported as 8.6 µM (active).
